# Species on record: Rattus norvegicus
# Assay: Open TG-GATES - Regimen: Single
# Type: toxicity, organism-based, Sprague-Dawley
# Parameters: regimen Single, gender Male, age 6 weeks
# Conditions: in vivo, po, 0 mg/kg, route gavage, dose level Control; for APTT / Bas / Eos / Fbg / Hb / Ht / Lym / MCH / MCHC / MCV / Mono / Neu / PT / Plat / RBC / Ret / WBC: tissue Blood; for KIDNEY_L / KIDNEY_R / KIDNEY_TOTAL: tissue Kidney; for LIVER: tissue Liver; for A/G / ALP / ALT / AST / BUN / CRE / Ca / Cl / DBIL / GLC / IP / K / LDH / Na / PL / RALB / TBIL / TC / TG / TP / gamma-GTP: tissue Plasma
smiles,measurement,setting,value
CN1C(=O)CCS(=O)(=O)C1c1ccc(Cl)cc1 (configuration not stated) [CHLORMEZANONE],TERMINAL_BW,3 h,226.1 g
same,APTT,3 h,17 s
same,Bas,3 h,0%
same,Eos,3 h,0.8%
same,Fbg,3 h,315.6 mg/dL
same,Hb,3 h,13.7 g/dL
same,Ht,3 h,40.3%
same,Lym,3 h,80.4%
same,MCH,3 h,21.7 pg
same,MCHC,3 h,33.9%
same,MCV,3 h,64.1 fL
same,Mono,3 h,3%
same,Neu,3 h,15%
same,PT,3 h,13.1 s
same,Plat,3 h,122.7 x10_4/uL
same,RBC,3 h,629.8 x10_4/ul
same,Ret,3 h,7.8%
same,WBC,3 h,78.6 x10_2/uL
same,KIDNEY_L,3 h,1 g
same,KIDNEY_R,3 h,1 g
same,KIDNEY_TOTAL,3 h,2 g
same,LIVER,3 h,10.3 g
same,A/G,3 h,0.9
same,ALP,3 h,1820.8 IU/L
same,ALT,3 h,43.6 IU/L
same,AST,3 h,67.4 IU/L
same,BUN,3 h,10.2 mg/dL
same,CRE,3 h,0.1 mg/dL
same,Ca,3 h,11.5 mg/dL
same,Cl,3 h,106.2 meq/L
same,DBIL,3 h,0.036 mg/dL
same,GLC,3 h,182.2 mg/dL
same,IP,3 h,9.5 mg/dL
same,K,3 h,4.2 meq/L
same,LDH,3 h,58.2 IU/L
same,Na,3 h,140.2 meq/L
same,PL,3 h,145.2 mg/dL
same,RALB,3 h,2.7 g/dL
same,TBIL,3 h,0.044 mg/dL
same,TC,3 h,73.8 mg/dL
same,TG,3 h,108.2 mg/dL
same,TP,3 h,5.7 g/dL
same,gamma-GTP,3 h,1 IU/L
same,TERMINAL_BW,6 h,224.1 g
same,APTT,6 h,15.7 s
same,Bas,6 h,0%
same,Eos,6 h,1%
same,Fbg,6 h,310.2 mg/dL
same,Hb,6 h,13.7 g/dL
same,Ht,6 h,40.5%
same,Lym,6 h,75%
same,MCH,6 h,21.9 pg
same,MCHC,6 h,33.8%
same,MCV,6 h,65 fL
same,Mono,6 h,3.4%
same,Neu,6 h,19.8%
same,PT,6 h,13.2 s
same,Plat,6 h,113.5 x10_4/uL
same,RBC,6 h,622.8 x10_4/ul
same,Ret,6 h,7.8%
same,WBC,6 h,97 x10_2/uL
same,KIDNEY_L,6 h,0.9 g
same,KIDNEY_R,6 h,0.9 g
same,KIDNEY_TOTAL,6 h,1.8 g
same,LIVER,6 h,9.3 g
same,A/G,6 h,0.9
same,ALP,6 h,1407 IU/L
same,ALT,6 h,40.8 IU/L
same,AST,6 h,78 IU/L
same,BUN,6 h,10.4 mg/dL
same,CRE,6 h,0.2 mg/dL
same,Ca,6 h,11.6 mg/dL
same,Cl,6 h,107 meq/L
same,DBIL,6 h,0.02 mg/dL
same,GLC,6 h,180.2 mg/dL
same,IP,6 h,9.8 mg/dL
same,K,6 h,4.3 meq/L
same,LDH,6 h,57.8 IU/L
same,Na,6 h,141.8 meq/L
same,PL,6 h,145.6 mg/dL
same,RALB,6 h,2.7 g/dL
same,TBIL,6 h,0.04 mg/dL
same,TC,6 h,85.2 mg/dL
same,TG,6 h,54.4 mg/dL
same,TP,6 h,5.7 g/dL
same,gamma-GTP,6 h,1.4 IU/L
same,TERMINAL_BW,9 h,227.6 g
same,APTT,9 h,15.1 s
same,Bas,9 h,0%
same,Eos,9 h,1%
same,Fbg,9 h,331.4 mg/dL
same,Hb,9 h,13.4 g/dL
same,Ht,9 h,39.9%
same,Lym,9 h,74.4%
same,MCH,9 h,21.2 pg
same,MCHC,9 h,33.5%
same,MCV,9 h,63.1 fL
same,Mono,9 h,3.4%
same,Neu,9 h,20.6%
same,PT,9 h,13.2 s
same,Plat,9 h,116.8 x10_4/uL
same,RBC,9 h,631.4 x10_4/ul
same,Ret,9 h,7.5%
same,WBC,9 h,79.8 x10_2/uL
same,KIDNEY_L,9 h,0.9 g
same,KIDNEY_R,9 h,0.9 g
same,KIDNEY_TOTAL,9 h,1.8 g
same,LIVER,9 h,8.6 g
same,A/G,9 h,0.9
same,ALP,9 h,1793 IU/L
same,ALT,9 h,38.6 IU/L
same,AST,9 h,67.8 IU/L
same,BUN,9 h,10.8 mg/dL
same,CRE,9 h,0.2 mg/dL
same,Ca,9 h,11.1 mg/dL
same,Cl,9 h,105 meq/L
same,DBIL,9 h,0.022 mg/dL
same,GLC,9 h,192.6 mg/dL
same,IP,9 h,11.3 mg/dL
same,K,9 h,3.8 meq/L
same,LDH,9 h,51.4 IU/L
same,Na,9 h,143 meq/L
same,PL,9 h,132 mg/dL
same,RALB,9 h,2.6 g/dL
same,TBIL,9 h,0.044 mg/dL
same,TC,9 h,74.8 mg/dL
same,TG,9 h,52.6 mg/dL
same,TP,9 h,5.5 g/dL
same,gamma-GTP,9 h,1 IU/L
same,TERMINAL_BW,24 h,235.8 g
same,APTT,24 h,17.4 s
same,Bas,24 h,0.2%
same,Eos,24 h,0.8%
same,Fbg,24 h,283.8 mg/dL
same,Hb,24 h,13.4 g/dL
same,Ht,24 h,39.1%
same,Lym,24 h,78.8%
same,MCH,24 h,21.6 pg
same,MCHC,24 h,34.4%
same,MCV,24 h,62.9 fL
same,Mono,24 h,2.8%
same,Neu,24 h,17%
same,PT,24 h,13 s
same,Plat,24 h,115.7 x10_4/uL
same,RBC,24 h,621 x10_4/ul
same,Ret,24 h,7.2%
same,WBC,24 h,77.6 x10_2/uL
same,KIDNEY_L,24 h,1 g
same,KIDNEY_R,24 h,1 g
same,KIDNEY_TOTAL,24 h,2 g
same,LIVER,24 h,10.6 g
same,A/G,24 h,0.9
same,ALP,24 h,1848.2 IU/L
same,ALT,24 h,51.8 IU/L
same,AST,24 h,87 IU/L
same,BUN,24 h,16.4 mg/dL
same,CRE,24 h,0.2 mg/dL
same,Ca,24 h,11.5 mg/dL
same,Cl,24 h,105.2 meq/L
same,DBIL,24 h,0.022 mg/dL
same,GLC,24 h,193.4 mg/dL
same,IP,24 h,8.1 mg/dL
same,K,24 h,4.3 meq/L
same,LDH,24 h,69.4 IU/L
same,Na,24 h,142 meq/L
same,PL,24 h,141.6 mg/dL
same,RALB,24 h,2.7 g/dL
same,TBIL,24 h,0.028 mg/dL
same,TC,24 h,77.4 mg/dL
same,TG,24 h,91.8 mg/dL
same,TP,24 h,5.7 g/dL
same,gamma-GTP,24 h,1 IU/L

# From ChEMBL document CHEMBL3885861, “Open TG-GATES”
